Results on 4 substances are retold here after article PMC9820828, “Anti-Melanogenesis Effects of a Cyclic Peptide Derived from Flaxseed via Inhibition of CREB Pathway” (International Journal of Molecular Sciences, 2022).

Common to all, as to format: cell-based, mouse
Series [1] deals with B16F10 melanoma cells. Briefly: Cell viability (MTT assay). The note with it: for cell viability (MTT): B16F10 melanoma cells; for toxicity (MTT): at the concentration contained in LOMIX and at all concentrations (0–50 μM). The procedure:
Mouse-derived B16F10 melanoma cells were incubated in the DMEM medium supplemented with 10% (v/v) FBS and 1% streptomycin–penicillin solution at 37 °C and 5% CO2. Sub-culture was conducted by detaching the cells with trypsin-EDTA after reaching 90% confluence.
The effects of LOMIX and each LO compound on cell survival were determined using the MTT assay. B16F10 melanoma cells (100 μL of 1.5 × 10^5 cells/mL) were seeded in a 96-well plate with 100 μL of the testing sample [LOMIX (0–200 μg/mL) or LO (0–50 μM)]. After 2 days, MTT solution (10 μL) was added to each well, and cells were incubated for an additional 3 h in the dark. The reaction was stopped by adding 100 μL of 10% SDS complemented with 0.01 M HCl. Moreover, 5000 cells/well of B16F10 melanoma cells were incubated in 96-well plates to check the cytotoxicity of LOMIX in the presence of α-MSH. The 10 μL of MTT solution was added to the cells incubated with the LOMIX (50 and 100 μg/mL) and α-MSH (100 nM) for 0, 24, and 48 h. Subsequently, the stopping solution (100 μL) (10% SDS solution with 0.01 M HCl) was added after 3 h incubation. The absorbance was measured at 570 nm using Synergy™ HTX (Biotek Instruments Inc., Winooski, VT, USA).

Series [2] has as its system B16F10 melanoma cells. Nature of the series: Extracellular melanin secretion in α-MSH-stimulated cells. The note with it: 48 h; for melanin (pigment) secretion: 12.5, 25 and 50 μM; for secretion of melanin: 6.25, 12.5 and 25 μM, dose-dependent. The procedure:
(§1) B16F10 melanoma cells (1.5 × 10^5 cells/mL) were seeded in a 6-well plate and cultured overnight. Then, the culture media were replaced with phenol red-free media containing DMSO (vehicle) or α-MSH (melanogenesis inducer) for the identification of the color change caused by melanogenesis. The cells were treated with different concentrations of LOMIX (25, 50, and 100 μg/mL) or LO A, B (6.25, 12.5, and 25 μM), D, E, and F and G (12.5, 25, and 50 μM). Arbutin at 1 mM was used as a positive control. After 48 h of the incubation, the culture medium’s optical density was detected at 475 nm to measure the amount of extracellular melanin secretion. Meanwhile, the remaining cells were harvested with 1 mL cold PBS and lysed with a lysis buffer (50 mM Tris-HCl pH 7.5, 120 mM NaCl, 20 mM β-glycerophosphate pH 7.5, and 2% NP-40). After centrifuging at 12,000× g for 5 min., the cell pellets were dissolved in 10% DMSO in 1 M NaOH and incubated at 60 °C. The melanin contents were measured at 405 nm using a Synergy™ HTX microplate reader. All photos of melanin-secreted medium and intracellular melanin contents were collected.

The test system of a further series is CREB. Briefly: Immunoblotting, phosphorylated CREB. The note with it: 0–25 μM, 100 nM α-MSH, 24 h, B16F10 cell lysates, Western blotting. As to the method:
(§2) To induce melanogenesis, 3 × 10^5 B16F10 melanoma cells per mL were treated with 100 nM of α-MSH. Subsequently, 1 mM of arbutin or LO A or B (0–25 μM) was administered to the culture media for 24 h. The cells were then harvested with 1 mL of cold PBS and lysed with lysis buffer containing protease inhibitors (20 mM Tris-HCl pH 7.5, 2 mM EDTA, 20 mM NaF, 150 mM NaCl, 50 mM β-glycerol phosphate, and 2% NP-40 containing 2 μg/mL of leupeptin, pepstatin, and aprotinin). The whole cell lysates were centrifuged at 12,000× g for 5 min to purify the intracellular protein. SDS-polyacrylamide gel electrophoresis (Bio-Rad, Hercules, CA, USA) was conducted to separate the equivalent protein contents according to size. The separated proteins were transferred to polyvinylidene fluoride membranes and blocked with 3% (w/v) bovine serum albumin (BSA) solution for at least 30 min at ambient temperature. They then were incubated overnight with primary antibodies (1:2500 dilution) at 4 °C. After three 10-min washes with 0.1% (w/v) Tween-20, the membranes were probed with HRP-conjugated secondary antibodies (1:2500 dilution). The signals of each protein sample were detected with enhanced chemiluminescence reagents.

The test system of a further series is TYRP-2. Briefly: Real-time PCR, TYRP-2 mRNA. The note with it: 0–25 μM, co-treatment with 100 nM α-MSH, 24 h, B16F10 cells. The procedure:
(§3) B16F10 cells (3 × 10^5 cells/mL) stimulated by 100 nM α-MSH were treated with LOMIX (0–100 μg/mL), LO A or B (0–25 μM), or arbutin 1 mM for 24 h. The cells were lysed with 300 μL of TRI Reagent® to extract total RNA. Then, 1 μg of total RNA with Reverse Transcriptase M-MuLV (Thermo Fisher Scientific, Waltham, MA, USA) was utilized to synthesize cDNA according to the manufacturer’s instructions. Real-time PCR was conducted, as previously described.
On the technique in general: In qPCR the cycle at which signal appears reflects the starting amount.

In series [3] the test system is B16F10 melanoma cells. Briefly: Intracellular melanin content in α-MSH-stimulated cells. The note with it: for melanin synthesis (melanin contents): 6.25, 12.5 and 25 μM, α-MSH, 48 h, B16F10 cells; for suppression of the synthesis of melanin: 12.5 and 25 μM, B16F10 cell lines. The procedure:
as §1

For another series, the system named is TYRP-1. Nature of the series: Real-time PCR, TYRP-1 mRNA. The note with it: 0–25 μM, co-treatment with 100 nM α-MSH, 24 h, B16F10 cells. As to the method: as §3
The subject of series [4] is MITF. Nature of the series: Immunoblotting, MITF protein. The note with it: 0–25 μM, 100 nM α-MSH, 24 h, B16F10 cell lysates, Western blotting. The procedure: as §2
The subject of the next series is PKA. Briefly: Immunoblotting, phosphorylated PKA. The note with it: 0–25 μM, 100 nM α-MSH, 24 h, B16F10 cell lysates, Western blotting. As to the method: as §2
Background: A western blot detects proteins with antibodies after separation by electrophoresis.

Another series has as its system Tyrosinase. Nature of the series: Real-time PCR, Tyrosinase mRNA. The note with it: 0–25 μM, co-treatment with 100 nM α-MSH, 24 h, B16F10 cells. The procedure:
as §3

In series [5] the test system is MITF. Briefly: Real-time PCR, MITF mRNA. The note with it: 0–25 μM, co-treatment with 100 nM α-MSH, 24 h, B16F10 cells. As to the method:
as §3

Regarding “[1–8-NαC],[1-(Rs,Ss)-MetO]-linusorb A2 [LO3]”, the “cell viability (MTT)” value in the series with B16F10 melanoma cells [1] (50 μM, 48 h) is reported as “not altered”. Further, in the series with B16F10 melanoma cells [1] (B16F10 cells, 48 h), the “toxicity (MTT)” value is reported as “did not show toxicity”. In addition, in the series with B16F10 melanoma cells [2], the “melanin (pigment) secretion” value is reported as “decreased”.
Turning to “[1–8-NαC],[1-(Rs,Ss)-MetO]-linusorb B1 [LO4]”, in the series on B16F10 melanoma cells [1] (50 μM, 48 h), the “cell viability (MTT)” value is recorded as “not altered”. The “toxicity (MTT)” value with B16F10 melanoma cells [1] (B16F10 cells, 48 h) is “did not show toxicity”. In addition, the “melanin (pigment) secretion” value in the series with B16F10 melanoma cells [2] is recorded as “decreased”.
Turning to [1–9-NαC]-linusorb B2 [LO2], in the series with CREB, the “phosphorylation of CREB” value is listed as “blocked”. In the series on TYRP-2, the “expression of TYRP-2 at mRNA level” value was “suppressed”. Besides, in the series on B16F10 melanoma cells [3], the “melanin synthesis (melanin contents)” value is “decreased” and the “suppression of the synthesis of melanin” value is given as “up to 90%”. Further, the “expression of TYRP1 at mRNA level” value with TYRP-1 is on record as “downregulated”. Also, the “protein level of MITF” value in the series with MITF [4] is reported as “decreased levels”. The “phosphorylation of PKA” value with PKA is “not PKA”. In the series with Tyrosinase, the “expression of tyrosinase at mRNA level” value is recorded as “downregulated”. Besides, the “expression of MITF at mRNA level” value in the series with MITF [5] is given as “downregulated”. Besides, in the series on B16F10 melanoma cells [2], the secretion of melanin result was “dramatically downregulated”.
Turning to [1–9-NαC]-linusorb B3 [LO1], in the series with CREB, the “phosphorylation of CREB” value is on record as “suppressed”. Besides, in the series on TYRP-2, the “expression of TYRP-2 at mRNA level” value is reported as “suppressed”. Besides, in the series with B16F10 melanoma cells [3], the “melanin synthesis (melanin contents)” value was “decreased” and the “suppression of the synthesis of melanin” value is recorded as “up to 90%”. Besides, in the series with B16F10 melanoma cells [1] (25 μM, 48 h), the “cell viability (MTT)” value is “not altered”. Also, the “cell survival (MTT)” value with B16F10 melanoma cells [1] (50 μM, B16F10 cells, 48 h) is listed as “declined”. In addition, the toxicity entry in the series on B16F10 melanoma cells [1] (12.5 and 25 μM, B16F10 cell lines) is reported as “without toxicity”. Moreover, the “expression of TYRP1 at mRNA level” value in the series on TYRP-1 is “effectively inhibited”. The “protein level of MITF” value in the series on MITF [4] was “significantly decreased”. Also, the “phosphorylation of PKA” value in the series with PKA was “suppressed”. Further, the “expression of tyrosinase at mRNA level” value with Tyrosinase is on record as “effectively inhibited”. Further, the “expression of MITF at mRNA level” value in the series on MITF [5] is recorded as “effectively inhibited”. Moreover, the secretion of melanin entry in the series with B16F10 melanoma cells [2] is “dramatically downregulated”.
